In ChEMBL document CHEMBL1201862, “PubChem BioAssay data set” (2004):
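Growth conditions: 96-well plates. Treatment: test compound, 48 hours, 5 concentrations. Analysis: linear interpolation between bracketing concentrations; unreached endpoints set to highest concentration. The concentration for 50% growth inhibition is given as GI50.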 Calls of active or inactive are those of the source. Rule as the data show it: active = GI50 up to about 1.1 µM and inactive = higher.

Columns and labels:
Assay in all cases: NCI-60 cell line screen, 48 h
EKVX = tested on: EKVX
PC-3 = tested on: PC-3
ACHN = tested on: ACHN
UACC-62 = tested on: UACC-62
RPMI-8226 = tested on: RPMI-8226
M14 = tested on: M14
A549 = tested on: A549
TK-10 = tested on: TK-10
SK-MEL-2 = tested on: SK-MEL-2
HOP-92 = tested on: HOP-92
OVCAR-3 = tested on: OVCAR-3
SW-620 = tested on: SW-620
HCC 2998 = tested on: HCC 2998
OVCAR-8 = tested on: OVCAR-8
SNB-19 = tested on: SNB-19
UACC-257 = tested on: UACC-257
CCRF-CEM = tested on: CCRF-CEM
IGROV-1 = tested on: IGROV-1
T47D = tested on: T47D
SR = tested on: SR

Measured: GI50

CCCCNc1c(CN)cnc2cc(Cl)ccc12
inactive: EKVX 3.79 µM | PC-3 16.8 µM | ACHN 22.6 µM | UACC-62 15.6 µM | RPMI-8226 16.4 µM | M14 20 µM | A549 20.5 µM | TK-10 15 µM | SK-MEL-2 17.8 µM | HOP-92 15.9 µM | OVCAR-3 15 µM | SW-620 16.3 µM | HCC 2998 2.73 µM | OVCAR-8 18.2 µM | SNB-19 22.9 µM | UACC-257 13 µM | CCRF-CEM 4.7 µM | IGROV-1 14.7 µM | T47D 19.2 µM

COC(NC(=O)Nc1ccc(C)cc1)(C(F)(F)F)C(F)(F)F
inactive: PC-3 13.9 µM | ACHN 24 µM | UACC-62 10.6 µM | RPMI-8226 24.6 µM | M14 29.5 µM | A549 34.8 µM | TK-10 42.8 µM | HOP-92 33 µM | OVCAR-3 42.8 µM | SW-620 20.4 µM | OVCAR-8 25.2 µM | SNB-19 23.7 µM | CCRF-CEM 2.67 µM | IGROV-1 26.5 µM | SR 30.9 µM | T47D 18.7 µM

CC1(C)OCC(C2OC(On3nnc4ccc(Cl)cc43)C3OC(C)(C)OC23)O1 (stereo not drawn)
inactive: EKVX > 100 µM | PC-3 > 100 µM | ACHN > 100 µM | UACC-62 > 100 µM | RPMI-8226 > 100 µM | M14 > 100 µM | A549 > 100 µM | TK-10 > 100 µM | SK-MEL-2 > 100 µM | HOP-92 > 100 µM | OVCAR-3 > 100 µM | SW-620 > 100 µM | OVCAR-8 > 100 µM | SNB-19 > 100 µM | UACC-257 > 100 µM | CCRF-CEM > 100 µM | IGROV-1 > 100 µM | SR > 100 µM | T47D > 100 µM

COc1cc(Nc2c(C#N)[n+]([O-])c3ccccc3[n+]2[O-])cc(OC)c1OC
inactive: EKVX 29 µM | PC-3 33.3 µM | ACHN 56.8 µM | RPMI-8226 > 100 µM | M14 15 µM | A549 43.8 µM | TK-10 > 100 µM | SK-MEL-2 39.1 µM | HOP-92 28.1 µM | OVCAR-3 25.6 µM | SW-620 29.9 µM | HCC 2998 18.4 µM | OVCAR-8 31.9 µM | SNB-19 28.6 µM | UACC-257 27.4 µM | CCRF-CEM 27 µM | T47D 14.8 µM

Cc1cc2c(c(=O)o1)C1=S(SC(c3ccccc3)=C1)S2 (stereo not drawn)
inactive: PC-3 24.4 µM | ACHN 34.7 µM | UACC-62 39.2 µM | RPMI-8226 55.6 µM | M14 45.5 µM | A549 33.7 µM | TK-10 32.2 µM | SK-MEL-2 66.4 µM | HOP-92 20.8 µM | OVCAR-3 24.9 µM | SW-620 > 100 µM | OVCAR-8 54.7 µM | SNB-19 28.2 µM | UACC-257 > 100 µM | CCRF-CEM > 100 µM | IGROV-1 55.5 µM | SR 18.3 µM | T47D 36.9 µM

NC1=CN2c3ccccc3N(CC(=O)N3CCOCC3)C2C=C1 (stereo not drawn)
inactive: EKVX > 100 µM | PC-3 > 100 µM | ACHN > 100 µM | UACC-62 > 100 µM | M14 > 100 µM | A549 > 100 µM | TK-10 > 100 µM | SK-MEL-2 > 100 µM | HOP-92 > 100 µM | SW-620 > 100 µM | OVCAR-8 > 100 µM | SNB-19 > 100 µM | UACC-257 > 100 µM | CCRF-CEM > 100 µM | IGROV-1 > 100 µM | SR > 100 µM | T47D > 100 µM

COCOc1cc(OC)ccc1C=O
inactive: EKVX 52.1 µM | PC-3 21.8 µM | ACHN 95.7 µM | UACC-62 54.2 µM | M14 35.2 µM | A549 > 100 µM | TK-10 31.6 µM | SK-MEL-2 34 µM | OVCAR-3 20.9 µM | SW-620 32.8 µM | HCC 2998 24.2 µM | OVCAR-8 41.3 µM | SNB-19 46.1 µM | UACC-257 28.6 µM | CCRF-CEM 20.7 µM | IGROV-1 33.1 µM | SR 11.3 µM | T47D 44.7 µM

CC(C)(C)C(=O)CC(=O)C(F)(F)C(F)(F)C(F)(F)F
inactive: EKVX 15.2 µM | PC-3 13.6 µM | ACHN 15.3 µM | UACC-62 15.3 µM | RPMI-8226 11.1 µM | M14 16 µM | A549 22.3 µM | TK-10 18.2 µM | SK-MEL-2 16.4 µM | HOP-92 14.7 µM | OVCAR-3 14.1 µM | SW-620 18.8 µM | OVCAR-8 20.7 µM | SNB-19 20 µM | UACC-257 15.3 µM | CCRF-CEM 16.3 µM | IGROV-1 11.9 µM | SR 5.06 µM | T47D 16 µM

N=C(CSS(=O)(=O)O)NC1CC2CCC1C2 (stereo not drawn)
inactive: PC-3 > 100 µM | ACHN > 100 µM | UACC-62 > 100 µM | RPMI-8226 > 100 µM | M14 > 100 µM | A549 > 100 µM | TK-10 > 100 µM | SK-MEL-2 > 100 µM | HOP-92 > 100 µM | OVCAR-3 > 100 µM | SW-620 > 100 µM | OVCAR-8 > 100 µM | SNB-19 > 100 µM | UACC-257 > 100 µM | CCRF-CEM > 100 µM | IGROV-1 > 100 µM | SR > 100 µM | T47D 71.8 µM

CCOc1cn(C2CC(O)C(CO)O2)c(=O)[nH]c1=O (stereo not drawn)
inactive: EKVX > 100 µM | PC-3 > 100 µM | ACHN > 100 µM | UACC-62 > 100 µM | RPMI-8226 > 100 µM | M14 > 100 µM | A549 > 100 µM | TK-10 > 100 µM | SK-MEL-2 > 100 µM | HOP-92 > 100 µM | OVCAR-3 > 100 µM | SW-620 > 100 µM | HCC 2998 > 100 µM | SNB-19 > 100 µM | UACC-257 > 100 µM | CCRF-CEM > 100 µM | IGROV-1 > 100 µM | T47D > 100 µM

O=C([O-])C(O)C(O)C(=O)O.[K+] (stereo not drawn) [POTASSIUM HYDROGENTARTRATE]
inactive: EKVX > 100 µM | PC-3 > 100 µM | ACHN > 100 µM | UACC-62 > 100 µM | RPMI-8226 > 100 µM | M14 > 100 µM | A549 > 100 µM | TK-10 > 100 µM | SK-MEL-2 > 100 µM | HOP-92 > 100 µM | OVCAR-3 > 100 µM | SW-620 > 100 µM | OVCAR-8 > 100 µM | SNB-19 > 100 µM | UACC-257 > 100 µM | CCRF-CEM > 100 µM | IGROV-1 > 100 µM | SR > 100 µM | T47D > 100 µM
